Where two headings read alike, the source gives them in different places.
Legend:
OC43 = OC43 Huh7 CPE assay (cytopathic experiment); type: cell-based, coronavirus OC43 (HCoV-OC43); conditions: for EC50: read-out: OC43 Huh7 CPE assay (μM) EC50; for EC90: read-out: OC43 Huh7 CPE assay (μM) EC90
Method in brief: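 Cells seeded overnight, then two-fold diluted compound added with virus; viability read by CellTiter-Glo after 3 days (229E, MRC5 cells) or 7 days (OC43, Huh7 cells). EC50/EC90 from % inhibition of virus-induced CPE; CC50 from parallel uninfected cytotoxicity runs, by nonlinear fitting.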

229E = 229E MRC5 CPE assay (cytopathic experiment); type: cell-based, coronavirus 229E (HCoV-229E)
[1] = Betacoronavirus 1, Huh-7, 168 h, Huh7 cells, OC43 virus, 7 days, Cell Titer Glo
[2] = Human coronavirus 229E, MRC5, 72 h; read-out: 229E MRC5 CPE assay (μM) EC50
[3] = Human coronavirus 229E, MRC5, 72 h; read-out: 229E MRC5 CPE assay (μM) EC90
[4] = Betacoronavirus 1, OC43, Huh-7, 168 h
[5] = Human coronavirus 229E, MRC5, 72 h, read-out: 229E MRC5 CPE assay (μM) EC50
[6] = Human coronavirus 229E, MRC5, 72 h, read-out: 229E MRC5 CPE assay (μM) EC90

Row | SMILES | EC50 (OC43; [1]) | EC90 (OC43; [1]) | EC50 (229E; [2]) | EC90 (229E; [3]) | EC50 (OC43; [4]) | EC90 (OC43; [4]) | EC50 (229E; [5]) | EC90 (229E; [6])
1 | CCC(CC)COC(=O)[C@H](C)N[P@@](=O)(OC[C@H]1O[C@@](C#N)(c2ccc3c(N)ncnn23)[C@H](O)[C@@H]1O)Oc1ccc(C[C@H](NC(=O)OCc2ccccc2)C(=O)OC2CCCC2)cc1 [Compound 218] | > 0.5 µM | > 0.5 µM | > 0.5 µM | > 0.5 µM | – | – | – | –
2 | CCC(CC)COC(=O)[C@H](C)N[P@](=O)(OC[C@H]1O[C@@](C#N)(c2ccc3c(N)ncnn23)[C@H](O)[C@@H]1O)Oc1ccc(C[C@H](NC(=O)OCc2ccccc2)C(=O)OC2CCCC2)cc1 [Compound 219] | > 0.5 µM | > 0.5 µM | > 0.5 µM | > 0.5 µM | – | – | – | –
3 | N#C[C@@]1(c2ccc3c(N)ncnn23)O[C@@H]2CO[P@@](=O)(Oc3ccccc3)O[C@H]2[C@H]1O [Compound 220] | – | – | > 0.5 µM | > 0.5 µM | > 0.5 µM | > 0.5 µM | – | –
4 | N#C[C@@]1(c2ccc3c(N)ncnn23)O[C@@H]2CO[P@](=O)(Oc3ccccc3)O[C@H]2[C@H]1O [Compound 221] | – | – | > 0.5 µM | > 0.5 µM | > 0.5 µM | > 0.5 µM | – | –
5 | CCCC(CCC)C(=O)OCO[P@@](=O)(OC[C@H]1O[C@@](C#N)(c2ccc3c(N)ncnn23)[C@H](O)[C@@H]1O)Oc1ccccc1 [Compound 222] | – | – | 0.1 to 0.5 µM | > 0.5 µM | > 0.5 µM | > 0.5 µM | – | –
6 | CCCC(CCC)C(=O)OCO[P@](=O)(OC[C@H]1O[C@@](C#N)(c2ccc3c(N)ncnn23)[C@H](O)[C@@H]1O)Oc1ccccc1 [Compound 223] | – | – | 0.1 to 0.5 µM | > 0.5 µM | > 0.5 µM | > 0.5 µM | – | –
7 | CCCC(CCC)C(=O)OCO[P@@](=O)(OC[C@H]1O[C@@](C#N)(c2ccc3c(N)ncnn23)[C@H](O)[C@@H]1O)Oc1cccc2ccccc12 [Compound 224] | – | – | > 0.5 µM | > 0.5 µM | > 0.5 µM | > 0.5 µM | – | –
8 | CCCC(CCC)C(=O)OCO[P@](=O)(OC[C@H]1O[C@@](C#N)(c2ccc3c(N)ncnn23)[C@H](O)[C@@H]1O)Oc1cccc2ccccc12 [Compound 225] | – | – | > 0.5 µM | > 0.5 µM | > 0.5 µM | > 0.5 µM | – | –
9 | CCCC(CCC)C(=O)OCO[P@](=O)(OC[C@H]1O[C@@](C#N)(c2ccc3c(N)ncnn23)[C@H](O)[C@@H]1O)Oc1ccc(C[C@H](NC(=O)OCc2ccccc2)C(=O)OC2CCCC2)cc1 [Compound 226] | – | – | > 0.5 µM | > 0.5 µM | > 0.5 µM | > 0.5 µM | – | –
10 | CCCC(CCC)C(=O)OCO[P@@](=O)(OC[C@H]1O[C@@](C#N)(c2ccc3c(N)ncnn23)[C@H](O)[C@@H]1O)Oc1ccc(C[C@H](NC(=O)OCc2ccccc2)C(=O)OC2CCCC2)cc1 [Compound 227] | – | – | > 0.5 µM | > 0.5 µM | > 0.5 µM | > 0.5 µM | – | –
11 | N#C[C@@]1(c2ccc3c(N)ncnn23)O[C@@H]2CO[P@](=O)(OCOC(=O)Oc3ccccc3)O[C@H]2[C@H]1O [Compound 228] | – | – | – | – | > 0.5 µM | > 0.5 µM | > 0.5 µM | > 0.5 µM
12 | N#C[C@@]1(c2ccc3c(N)ncnn23)O[C@@H]2CO[P@@](=O)(OCOC(=O)Oc3ccccc3)O[C@H]2[C@H]1O [Compound 229] | – | – | – | – | > 0.5 µM | > 0.5 µM | > 0.5 µM | > 0.5 µM
13 | CCO[P@@]1(=O)OC[C@H]2O[C@@](C#N)(c3ccc4c(N)ncnn34)[C@H](O)[C@@H]2O1 [Compound 230] | > 0.5 µM | > 0.5 µM | > 0.5 µM | > 0.5 µM | – | – | – | –
14 | CCO[P@]1(=O)OC[C@H]2O[C@@](C#N)(c3ccc4c(N)ncnn34)[C@H](O)[C@@H]2O1 [Compound 231] | > 0.5 µM | > 0.5 µM | > 0.5 µM | > 0.5 µM | – | – | – | –
15 | [2H]c1cc([C@]2(C#N)O[C@@H]3CO[P@](=O)(OCC)O[C@H]3[C@H]2O)n2ncnc(N)c12 [Compound 232] | > 0.5 µM | > 0.5 µM | > 0.5 µM | > 0.5 µM | – | – | – | –
16 | [2H]c1cc([C@]2(C#N)O[C@@H]3CO[P@@](=O)(OCC)O[C@H]3[C@H]2O)n2ncnc(N)c12 [Compound 233] | > 0.5 µM | > 0.5 µM | > 0.5 µM | > 0.5 µM | – | – | – | –

Row | SMILES | EC50 (OC43; [1]) | EC90 (OC43; [1]) | EC50 (229E; [2]) | EC90 (229E; [3]) | EC50 (OC43; [4]) | EC90 (OC43; [4]) | EC50 (229E; [5]) | EC90 (229E; [6])
17 | CC(C)(C)C(=O)SCCO[P@@]1(=O)OC[C@H]2O[C@@](C#N)(c3ccc4c(N)ncnn34)[C@H](O)[C@@H]2O1 [Compound 236] | – | – | – | – | < 0.1 µM | < 0.1 µM | < 0.1 µM | < 0.1 µM
18 | [2H]c1cc([C@]2(C#N)O[C@@H]3CO[P@](=O)(OCCSC(=O)C(C)(C)C)O[C@H]3[C@H]2O)n2ncnc(N)c12 [Compound 238] | – | – | – | – | < 0.1 µM | < 0.1 µM | < 0.1 µM | < 0.1 µM
19 | [2H]c1cc([C@]2(C#N)O[C@@H]3CO[P@@](=O)(OCCSC(=O)C(C)(C)C)O[C@H]3[C@H]2O)n2ncnc(N)c12 [Compound 239] | – | – | – | – | < 0.1 µM | 0.1 to 0.5 µM | < 0.1 µM | < 0.1 µM
20 | N#C[C@@]1(c2ccc3c(N)ncnn23)O[C@@H]2COP(=O)(O)O[C@H]2[C@H]1OC(=O)CCCc1ccccc1 [Compound 260] | – | – | – | – | > 0.5 µM | > 0.5 µM | 0.1 to 0.5 µM | 0.1 to 0.5 µM
21 | N#C[C@@]1(c2ccc3c(N)ncnn23)O[C@@H]2CO[P@](=O)(OCOC(=O)C3CCCC3)O[C@H]2[C@H]1O [Compound 261] | – | – | – | – | > 0.5 µM | > 0.5 µM | 0.1 to 0.5 µM | > 0.5 µM
22 | N#C[C@@]1(c2ccc3c(N)ncnn23)O[C@@H]2CO[P@@](=O)(OCOC(=O)C3CCCC3)O[C@H]2[C@H]1O [Compound 262] | – | – | – | – | > 0.5 µM | > 0.5 µM | 0.1 to 0.5 µM | > 0.5 µM
23 | N#C[C@@]1(c2ccc3c(N)ncnn23)O[C@@H]2CO[P@](=O)(OCOC(=O)CCCc3ccccc3)O[C@H]2[C@H]1O [Compound 263] | – | – | – | – | 0.1 to 0.5 µM | > 0.5 µM | < 0.1 µM | < 0.1 µM
24 | N#C[C@@]1(c2ccc3c(N)ncnn23)O[C@@H]2CO[P@@](=O)(OCOC(=O)CCCc3ccccc3)O[C@H]2[C@H]1O [Compound 264] | – | – | – | – | > 0.5 µM | > 0.5 µM | < 0.1 µM | 0.1 to 0.5 µM
25 | N#C[C@@]1(c2ccc3c(N)ncnn23)O[C@H](COP(=O)(OCOC(=O)CCCc2ccccc2)OCOC(=O)CCCc2ccccc2)[C@@H](O)[C@H]1O [Compound 266] | – | – | – | – | > 0.5 µM | > 0.5 µM | > 0.5 µM | > 0.5 µM
26 | CC(C)OC(=O)C(C)(C)N[P@@](=O)(OCOC(=O)C1CCCC1)OC[C@H]1O[C@@](C#N)(c2ccc3c(N)ncnn23)[C@H](O)[C@@H]1O [Compound 267] | – | – | – | – | > 0.5 µM | > 0.5 µM | > 0.5 µM | > 0.5 µM
27 | CC(C)OC(=O)C(C)(C)N[P@](=O)(OCOC(=O)C1CCCC1)OC[C@H]1O[C@@](C#N)(c2ccc3c(N)ncnn23)[C@H](O)[C@@H]1O [Compound 268] | – | – | – | – | > 0.5 µM | > 0.5 µM | > 0.5 µM | > 0.5 µM
28 | CC(C)OC(=O)C(C)(C)N[P@@](=O)(OCOC(=O)CCCc1ccccc1)OC[C@H]1O[C@@](C#N)(c2ccc3c(N)ncnn23)[C@H](O)[C@@H]1O [Compound 269] | – | – | – | – | > 0.5 µM | > 0.5 µM | > 0.5 µM | > 0.5 µM
29 | CC(C)OC(=O)C(C)(C)N[P@](=O)(OCOC(=O)CCCc1ccccc1)OC[C@H]1O[C@@](C#N)(c2ccc3c(N)ncnn23)[C@H](O)[C@@H]1O [Compound 270] | – | – | – | – | > 0.5 µM | > 0.5 µM | > 0.5 µM | > 0.5 µM
30 | N#C[C@@]1(c2ccc3c(N)ncnn23)O[C@H](COP(=O)(OCOC(=O)OC2CCC2)OCOC(=O)OC2CCC2)[C@@H](O)[C@H]1O [Compound 276] | – | – | – | – | 0.1 to 0.5 µM | > 0.5 µM | 0.1 to 0.5 µM | > 0.5 µM
31 | CCC(CC)COC(=O)[C@H](C)N[P@](=O)(OC[C@H]1O[C@@](C#N)(c2ccc3c(N)ncnn23)[C@H](O)[C@@H]1O)Oc1ccccc1 [Remdesivir, reference compound] | < 0.1 µM | < 0.1 µM | < 0.1 µM | 0.1 to 0.5 µM | – | – | – | –

From patent publication US20240252527A9, “NUCLEOSIDE DRUGS FOR THE TREATMENT OR PREVENTION OF CORONAVIRUS INFECTION AND THEIR USES” (Miracure Biotechnology Limited, priority 2022, published 2024)
